A short description of data set [1]: Rat plasma half-life assay (LC-MS). Format: in vitro ADME. The settings on record: incubated at 37° C., read-out: Rat Plasma T½ (converted). The method, then: (§1) B. Human and Rat Plasma Half-Life Assay
(§2) 50 μl, was removed at various times, like at 0, 1, 2, 3, 4, 8, 24, 32, 48, 56, 72 hours, mixed with 5 μL formic acid and 150 μL acetonitrile in a microcentrifuge tube, vertexed, and centrifuged for 10 minutes at 10K rpm. The supernatant was transferred to an injection vial and analyzed by LC-MS. The LC-MS system consisted of an API4000 mass spectrometer with an ESI probe. Positive ion mode and full scan detection were used. HPLC separation was carried out on a Luna 3μ C8 (2), 2×30 mm column with a gradient from 90% A to 90% B in 10 minutes at a flow rate of 0.3 ml/min. Buffer A was 1% formic acid in water and buffer B was 1% formic acid acetonitrile.

Data set [2] in a line: Human plasma half-life assay (LC-MS). Format: in vitro ADME. The settings on record: incubated at 37° C., read-out: Human Plasma T½ (converted). The method, then:
as §1, §2

Where a SMILES comes first, the peptide text is derived from it. [ ]: non-standard residue; d: D form. The star is where a group is joined. Decanoyl = CCCCCCCCCC(=O)*; Ac6c = NC1(C(=O)O)CCCCC1; Orn = NCCC[C@H](N)C(=O)O; X1 = CCCN1C(=O)CC(*)C1=O; Hexanoyl = CCCCCC(=O)*

Regarding `CCCCCC(=O)N[C@@H](CO)C(=O)N[C@@H](CC(=O)O)C(=O)N[C@@H](Cc1ccc(O)cc1)C(=O)N[C@@H](CO)C(=O)N[C@H](C(=O)N[C@@H](C)C(=O)N[C@@H](CCSC)C(=O)N[C@@H](CC(=O)O)C(=O)N[C@@H](CCCCN)C(=O)N[C@H](C(=O)N[C@@H](Cc1c[nH]cn1)C(=O)N[C@@H](CCC(N)=O)C(=O)N[C@@H](CCC(N)=O)C(=O)N[C@@H](CC(=O)O)C(=O)N[C@@H](Cc1ccccc1)C(=O)N[C@H](C(=O)N[C@@H](CC(N)=O)C(=O)N[C@@H](Cc1c[nH]c2ccccc12)C(=O)N[C@@H](CC(C)C)C(=O)N[C@@H](CC(C)C)C(=O)N[C@@H](C)C(=O)N[C@@H](CCC(N)=O)C(=O)N[C@@H](CCCCN)C(=O)N[C@@H](CSC1CC(=O)N(CCC)C1=O)C(=O)N[C@@H](CCCCN)C(=O)N[C@@H](CCCCN)C(=O)N[C@@H](CC(N)=O)C(=O)N[C@@H](CC(=O)O)C(=O)N[C@@H](Cc1c[nH]c2ccccc12)C(=O)N[C@@H](CCCCN)C(=O)N[C@@H](Cc1c[nH]cn1)C(=O)N[C@@H](CC(N)=O)C(=O)N[C@H](C(=O)N[C@H](C(=O)N[C@@H](CCC(N)=O)C(=O)O)[C@@H](C)O)[C@@H](C)CC)C(C)C)[C@@H](C)CC)[C@@H](C)CC` (stereo partly drawn) [Example 41, [CH3-(CH2)4-C(O)-Ser^8, Cys(Psu)^31]hGIP(8-42)-OH] (Hexanoyl-SDYSIAMDKIHQQDFVNWLLAQKC(X1)KKNDWKHNITQ-OH), the values for the half-life at 0.1 mg/mL in data set [1] and in data set [2] were 3.7 h and 5.9 h, respectively.
Take `CCCCCCCCCC(=O)NCCC[C@H](NC(=O)[C@H](CCCCN)NC(=O)[C@H](CCC(N)=O)NC(=O)[C@H](C)NC(=O)[C@H](CC(C)C)NC(=O)[C@H](CC(C)C)NC(=O)[C@H](Cc1c[nH]c2ccccc12)NC(=O)[C@H](CC(N)=O)NC(=O)[C@@H](NC(=O)[C@H](Cc1ccccc1)NC(=O)[C@H](CC(=O)O)NC(=O)[C@H](CCC(N)=O)NC(=O)[C@H](CCC(N)=O)NC(=O)[C@H](Cc1c[nH]cn1)NC(=O)[C@@H](NC(=O)[C@H](CCCCN)NC(=O)[C@H](CC(=O)O)NC(=O)[C@H](CCSC)NC(=O)[C@H](C)NC(=O)[C@@H](NC(=O)[C@H](CO)NC(=O)[C@H](Cc1ccc(O)cc1)NC(=O)[C@H](CC(=O)O)NC(=O)[C@H](CO)NC(=O)C1(N)CCCCC1)[C@@H](C)CC)[C@@H](C)CC)C(C)C)C(=O)N[C@@H](CCCCN)C(=O)N[C@@H](CCCCN)C(=O)N[C@@H](CC(N)=O)C(=O)N[C@@H](CC(=O)O)C(=O)N[C@@H](Cc1c[nH]c2ccccc12)C(=O)N[C@@H](CCCCN)C(=O)N[C@@H](Cc1c[nH]cn1)C(=O)N[C@@H](CC(N)=O)C(=O)N[C@H](C(=O)N[C@H](C(=O)N[C@@H](CCC(N)=O)C(=O)O)[C@@H](C)O)[C@@H](C)CC` [Example 14, [A6c^7, Orn^31(N-C(O)-(CH2)8-CH3)]hGIP(7-42)-OH] (H-[Ac6c]SDYSIAMDKIHQQDFVNWLLAQK[Orn](Decanoyl)KKNDWKHNITQ-OH): the half-life at 0.1 mg/ml in data set [1] was 15.3 h; in data set [2] it was 4.1 h.
For the compound `CCCN1C(=O)CC(SC[C@H](NC(=O)[C@H](CCCCN)NC(=O)[C@H](CCC(N)=O)NC(=O)[C@H](C)NC(=O)[C@H](CC(C)C)NC(=O)[C@H](CC(C)C)NC(=O)[C@H](Cc2c[nH]c3ccccc23)NC(=O)[C@H](CC(N)=O)NC(=O)[C@@H](NC(=O)[C@H](Cc2ccccc2)NC(=O)[C@H](CC(=O)O)NC(=O)[C@H](CCC(N)=O)NC(=O)[C@H](CCC(N)=O)NC(=O)[C@H](Cc2c[nH]cn2)NC(=O)[C@@H](NC(=O)[C@H](CCCCN)NC(=O)[C@H](CC(=O)O)NC(=O)[C@H](CCSC)NC(=O)[C@H](C)NC(=O)[C@@H](NC(=O)[C@H](CO)NC(=O)[C@H](Cc2ccc(O)cc2)NC(=O)[C@H](CC(=O)O)NC(=O)[C@H](CO)NC(=O)C2(NC(=O)[C@@H](N)Cc3ccccc3)CCCCC2)[C@@H](C)CC)[C@@H](C)CC)C(C)C)C(=O)N[C@@H](CCCCN)C(=O)N[C@@H](CCCCN)C(=O)N[C@@H](CC(N)=O)C(=O)N[C@@H](CC(=O)O)C(=O)N[C@@H](Cc2c[nH]c3ccccc23)C(=O)N[C@@H](CCCCN)C(=O)N[C@@H](Cc2c[nH]cn2)C(=O)N[C@@H](CC(N)=O)C(=O)N[C@H](C(=O)N[C@H](C(=O)N[C@@H](CCC(N)=O)C(=O)O)[C@@H](C)O)[C@@H](C)CC)C1=O` (stereo partly drawn) [Example 31, [A6c^7, Cys(Psu)^31]hGIP(6-42)-OH] (H-F[Ac6c]SDYSIAMDKIHQQDFVNWLLAQKC(X1)KKNDWKHNITQ-OH), the half-life at 0.1 mg/mL in data set [1] is 5.1 h; in data set [2], 4.4 h.
For the compound `CCCN1C(=O)CC(SC[C@H](NC(=O)[C@H](CCCCN)NC(=O)[C@H](CCCCN)NC(=O)CNC(=O)[C@H](CCCCN)NC(=O)[C@H](CCC(N)=O)NC(=O)[C@H](C)NC(=O)[C@H](CC(C)C)NC(=O)[C@H](CC(C)C)NC(=O)[C@H](Cc2c[nH]c3ccccc23)NC(=O)[C@H](CC(N)=O)NC(=O)[C@@H](NC(=O)[C@H](Cc2ccccc2)NC(=O)[C@H](CC(=O)O)NC(=O)[C@H](CCC(N)=O)NC(=O)[C@H](CCC(N)=O)NC(=O)[C@H](Cc2c[nH]cn2)NC(=O)[C@@H](NC(=O)[C@H](CCCCN)NC(=O)[C@H](CC(=O)O)NC(=O)[C@H](CCSC)NC(=O)[C@H](C)NC(=O)[C@@H](NC(=O)[C@H](CO)NC(=O)[C@H](Cc2ccc(O)cc2)NC(=O)[C@H](CC(=O)O)NC(=O)[C@H](CO)NC(=O)C2(NC(C)=O)CCCCC2)[C@@H](C)CC)[C@@H](C)CC)C(C)C)C(=O)N[C@@H](CC(=O)O)C(=O)N[C@@H](Cc2c[nH]c3ccccc23)C(=O)N[C@@H](CCCCN)C(=O)N[C@@H](Cc2c[nH]cn2)C(=O)N[C@@H](CC(N)=O)C(=O)N[C@H](C(=O)N[C@H](C(=O)N[C@@H](CCC(N)=O)C(=O)O)[C@@H](C)O)[C@@H](C)CC)C1=O` (stereo partly drawn) [Example 7, [Ac-A6c^7, Cys(Psu)^34]hGIP(7-42)-OH] (Ac-[Ac6c]SDYSIAMDKIHQQDFVNWLLAQKGKKC(X1)DWKHNITQ-OH), the half-life at 0.1 mg/mL in data set [1] was 1.6 h; in data set [2] it was 7.9 h.
As to `CCCCCCCCCC(=O)NCCC[C@H](NC(=O)[C@H](CCCCN)NC(=O)[C@H](CCC(N)=O)NC(=O)[C@H](C)NC(=O)[C@H](CC(C)C)NC(=O)[C@H](CC(C)C)NC(=O)[C@H](Cc1c[nH]c2ccccc12)NC(=O)[C@H](CC(N)=O)NC(=O)[C@@H](NC(=O)[C@H](Cc1ccccc1)NC(=O)[C@H](CC(=O)O)NC(=O)[C@H](CCC(N)=O)NC(=O)[C@H](CCC(N)=O)NC(=O)[C@H](Cc1c[nH]cn1)NC(=O)[C@@H](NC(=O)[C@H](CCCCN)NC(=O)[C@H](CC(=O)O)NC(=O)[C@H](CCSC)NC(=O)[C@H](C)NC(=O)[C@@H](NC(=O)[C@H](CO)NC(=O)[C@H](Cc1ccc(O)cc1)NC(=O)[C@H](CC(=O)O)NC(=O)[C@H](CO)NC(=O)C1(NC(=O)CCCCCCCCC)CCCCC1)[C@@H](C)CC)[C@@H](C)CC)C(C)C)C(=O)N[C@@H](CCCCN)C(=O)N[C@@H](CCCCN)C(=O)N[C@@H](CC(N)=O)C(=O)N[C@@H](CC(=O)O)C(=O)N[C@@H](Cc1c[nH]c2ccccc12)C(=O)N[C@@H](CCCCN)C(=O)N[C@@H](Cc1c[nH]cn1)C(=O)N[C@@H](CC(N)=O)C(=O)N[C@H](C(=O)N[C@H](C(=O)N[C@@H](CCC(N)=O)C(=O)O)[C@@H](C)O)[C@@H](C)CC` [Example 15, [CH3-(CH2)8-C(O)-A6c^7, Orn^31(N-C(O)-(CH2)8-CH3)]hGIP(7-42)-OH] (Decanoyl-[Ac6c]SDYSIAMDKIHQQDFVNWLLAQK[Orn](Decanoyl)KKNDWKHNITQ-OH), the figures for the half-life at 0.1 mg/ml in data set [1] and in data set [2] were > 72 h and 5.2 h, respectively.
`CCCN1C(=O)CC(SC[C@H](NC(=O)[C@H](CCCCN)NC(=O)[C@H](CCC(N)=O)NC(=O)[C@H](C)NC(=O)[C@H](CC(C)C)NC(=O)[C@H](CC(C)C)NC(=O)[C@H](Cc2c[nH]c3ccccc23)NC(=O)[C@H](CC(N)=O)NC(=O)[C@@H](NC(=O)[C@H](Cc2ccccc2)NC(=O)[C@H](CC(=O)O)NC(=O)[C@H](CCC(N)=O)NC(=O)[C@H](CCC(N)=O)NC(=O)[C@H](Cc2c[nH]cn2)NC(=O)[C@@H](NC(=O)[C@H](CCCCN)NC(=O)[C@H](CC(=O)O)NC(=O)[C@H](CCSC)NC(=O)[C@H](C)NC(=O)[C@@H](NC(=O)[C@H](CO)NC(=O)[C@H](Cc2ccc(O)cc2)NC(=O)[C@H](CC(=O)O)NC(=O)[C@H](CO)NC(=O)C2(NC(C)=O)CCCCC2)[C@@H](C)CC)[C@@H](C)CC)C(C)C)C(=O)N[C@@H](CCCCN)C(=O)N[C@@H](CCCCN)C(=O)N[C@@H](CC(N)=O)C(=O)N[C@@H](CC(=O)O)C(=O)N[C@@H](Cc2c[nH]c3ccccc23)C(=O)N[C@@H](CCCCN)C(=O)N[C@@H](Cc2c[nH]cn2)C(=O)N[C@@H](CC(N)=O)C(=O)N[C@H](C(=O)N[C@H](C(=O)N[C@@H](CCC(N)=O)C(=O)O)[C@@H](C)O)[C@@H](C)CC)C1=O` (stereo partly drawn) [Example 10, [Ac-A6c^7, Cys(Psu)^31]hGIP(7-42)-OH] (Ac-[Ac6c]SDYSIAMDKIHQQDFVNWLLAQKC(X1)KKNDWKHNITQ-OH): the figures for the half-life at 0.1 mg/mL in data set [1] and in data set [2] were 2.6 h and 8 h, respectively.
